Like-named read-outs stand apart in the source and are kept apart here.
Target: recombinant His6-tagged human FABP5 (Homo sapiens, UniProt Q01469)
Experiment: Isothermal titration calorimetry
Format: binding

Chain of recombinant His6-tagged human FABP5 (Q01469 whole entry): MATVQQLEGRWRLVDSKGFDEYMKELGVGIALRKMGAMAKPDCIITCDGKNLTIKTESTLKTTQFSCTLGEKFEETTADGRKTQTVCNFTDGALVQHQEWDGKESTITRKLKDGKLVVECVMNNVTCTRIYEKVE

| Kd (read-out: dissociation constant (Kd), ITC, 25 °C, 100 mM NaCl, 30 mM Tris (pH 7.5), 5% glycerol, one-binding-site model, ± error of the fit) [µM] | Compound | Kd [µM] |
| --- | --- | --- |
| 167 ± 34 | O=P(O)(O)C(F)(F)C(F)(F)C(F)(F)C(F)(F)C(F)(F)C(F)(F)C(F)(F)C(F)(F)F [PFOPA, perfluorooctanephosphonic acid] | – |
| – | O=C(O)C(F)(F)C(F)(F)C(F)(F)C(F)(F)C(F)(F)C(F)(F)C(F)(F)F [PFOA, perfluorooctanoic acid] | 77 ± 17 |

From article PMC8760635 (Analytical chemistry, 2021)
